Data taken from ChEMBL document CHEMBL1201862, “PubChem BioAssay data set” (2004).
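Exposure lasted 48 hours, with cells grown in 96-well plates and compounds tested at five concentrations. At the GI50, growth is halved.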 Active and inactive are the calls of the source. No stated cut-off is given here; in the data, active = GI50 up to about 1.1 µM and inactive = higher.

Tests used:
Experiment in all cases: growth of human tumour cells (NCI), 48 h
OVCAR-3 = test system: OVCAR-3
KM-20L2 = test system: KM-20L2
SK-MEL-28 = test system: SK-MEL-28
SF-295 = test system: SF-295
LXFL 529 = test system: LXFL 529
NCI-H460 = test system: NCI-H460
SK-OV-3 = test system: SK-OV-3
UO-31 = test system: UO-31
UACC-62 = test system: UACC-62
HOP-62 = test system: HOP-62
U-251 = test system: U-251
MOLT-4 = test system: MOLT-4
NCI-H522 = test system: NCI-H522
SR = test system: SR
SF-539 = test system: SF-539
IGROV-1 = test system: IGROV-1
UACC-257 = test system: UACC-257
K562 = test system: K562
M14 = test system: M14
OVCAR-4 = test system: OVCAR-4
SK-MEL-2 = test system: SK-MEL-2
COLO 205 = test system: COLO 205
HT-29 = test system: HT-29
HL-60 = test system: HL-60
SF-268 = test system: SF-268
HCT-116 = test system: HCT-116
NCI-H23 = test system: NCI-H23
SNB-19 = test system: SNB-19
OVCAR-5 = test system: OVCAR-5
M19-MEL = test system: M19-MEL
HCC 2998 = test system: HCC 2998
KM12 = test system: KM12
RPMI-8226 = test system: RPMI-8226
HOP-92 = test system: HOP-92
ACHN = test system: ACHN
DMS-114 = test system: DMS-114
SNB-75 = test system: SNB-75
SNB-78 = test system: SNB-78
LOX IMVI = test system: LOX IMVI
RXF 393 = test system: RXF 393
TK-10 = test system: TK-10
SK-MEL-5 = test system: SK-MEL-5
Malme-3M = test system: Malme-3M
A498 = test system: A498
PC-3 = test system: PC-3
MDA-MB-435 = test system: MDA-MB-435
SW-620 = test system: SW-620
EKVX = test system: EKVX
BT-549 = test system: BT-549
SN12C = test system: SN12C
CAKI-1 = test system: CAKI-1
T47D = test system: T47D
MDA-MB-231 = test system: MDA-MB-231
A549 = test system: A549
786-0 = test system: 786-0
MCF7 = test system: MCF7
DU-145 = test system: DU-145
MDA-N = test system: MDA-N
NCI-H226 = test system: NCI-H226
CCRF-CEM = test system: CCRF-CEM
HCT-15 = test system: HCT-15
NCI/ADR-RES = test system: NCI/ADR-RES
OVCAR-8 = test system: OVCAR-8
Hs-578T = test system: Hs-578T

Structure (SMILES): Cc1cnc2cc(Cl)ccc2c1NCCN(CC(C)C)CC(C)C
- GI50 (OVCAR-3): 13.3 µM (inactive)
- GI50 (KM-20L2): 17.5 µM (inactive)
- GI50 (SK-MEL-28): > 100 µM (inactive)
- GI50 (SF-295): 32.7 µM (inactive)
- GI50 (LXFL 529): 59.8 µM (inactive)
- GI50 (NCI-H460): > 100 µM (inactive)
- GI50 (SK-OV-3): > 100 µM (inactive)
- GI50 (UO-31): 9.23 µM (inactive)
- GI50 (UACC-62): > 100 µM (inactive)
- GI50 (HOP-62): 67.6 µM (inactive)
- GI50 (U-251): > 100 µM (inactive)
- GI50 (MOLT-4): > 100 µM (inactive)
- GI50 (NCI-H522): 13.1 µM (inactive)
- GI50 (SR): > 100 µM (inactive)
- GI50 (SF-539): > 100 µM (inactive)
- GI50 (IGROV-1): > 100 µM (inactive)
- GI50 (UACC-257): > 100 µM (inactive)
- GI50 (K562): 9.53 µM (inactive)
- GI50 (M14): > 100 µM (inactive)
- GI50 (OVCAR-4): > 100 µM (inactive)
- GI50 (SK-MEL-2): > 100 µM (inactive)
- GI50 (COLO 205): > 100 µM (inactive)
- GI50 (HT-29): 8.3 µM (inactive)
- GI50 (HL-60): 9.75 µM (inactive)
- GI50 (SF-268): > 100 µM (inactive)
- GI50 (HCT-116): 78.7 µM (inactive)
- GI50 (NCI-H23): 95.3 µM (inactive)
- GI50 (SNB-19): > 10 µM (inactive)
- GI50 (OVCAR-5): > 100 µM (inactive)
- GI50 (M19-MEL): > 100 µM (inactive)
- GI50 (HCC 2998): > 100 µM (inactive)
- GI50 (KM12): > 100 µM (inactive)
- GI50 (RPMI-8226): 13.6 µM (inactive)
- GI50 (HOP-92): 11.1 µM (inactive)
- GI50 (ACHN): > 100 µM (inactive)
- GI50 (DMS-114): 8.18 µM (inactive)
- GI50 (SNB-75): > 100 µM (inactive)
- GI50 (SNB-78): 41.1 µM (inactive)

Structure (SMILES): O=c1cc(/N=N\c2ccc(Cl)cc2)[nH]c(=O)[nH]1
- GI50 (LOX IMVI): 1.57 µM (inactive)
- GI50 (OVCAR-3): 4.12 µM (inactive)
- GI50 (RXF 393): 6.37 µM (inactive)
- GI50 (SK-MEL-28): 4.69 µM (inactive)
- GI50 (SF-295): 13.9 µM (inactive)
- GI50 (NCI-H460): 5.52 µM (inactive)
- GI50 (SK-OV-3): 14.7 µM (inactive)
- GI50 (TK-10): 7.55 µM (inactive)
- GI50 (SK-MEL-5): 10.6 µM (inactive)
- GI50 (Malme-3M): 3.01 µM (inactive)
- GI50 (A498): > 10 µM (inactive)
- GI50 (UO-31): 4.82 µM (inactive)
- GI50 (PC-3): 7.05 µM (inactive)
- GI50 (MDA-MB-435): 4.84 µM (inactive)
- GI50 (SW-620): 2.33 µM (inactive)
- GI50 (UACC-62): 3.48 µM (inactive)
- GI50 (HOP-62): 7.74 µM (inactive)
- GI50 (U-251): 4.81 µM (inactive)
- GI50 (EKVX): 4.09 µM (inactive)
- GI50 (BT-549): 3.88 µM (inactive)
- GI50 (SN12C): 3.98 µM (inactive)
- GI50 (MOLT-4): 2.9 µM (inactive)
- GI50 (NCI-H522): 1.71 µM (inactive)
- GI50 (SR): 1.2 µM (inactive)
- GI50 (SF-539): 4.44 µM (inactive)
- GI50 (CAKI-1): 0.923 µM (active)
- GI50 (IGROV-1): 3.44 µM (inactive)
- GI50 (T47D): 3.18 µM (inactive)
- GI50 (UACC-257): 4.83 µM (inactive)
- GI50 (MDA-MB-231): 3.6 µM (inactive)
- GI50 (K562): 3.43 µM (inactive)
- GI50 (M14): 3.95 µM (inactive)
- GI50 (OVCAR-4): 4.42 µM (inactive)
- GI50 (A549): 10.1 µM (inactive)
- GI50 (SK-MEL-2): 13.3 µM (inactive)
- GI50 (COLO 205): 2.33 µM (inactive)
- GI50 (HT-29): 2.35 µM (inactive)
- GI50 (HL-60): 1.11 µM (active)
- GI50 (SF-268): 4.61 µM (inactive)
- GI50 (786-0): 1.66 µM (inactive)
- GI50 (MCF7): 3.97 µM (inactive)
- GI50 (HCT-116): 1.94 µM (inactive)
- GI50 (DU-145): 9.23 µM (inactive)
- GI50 (MDA-N): 4.71 µM (inactive)
- GI50 (NCI-H23): 7.67 µM (inactive)
- GI50 (SNB-19): 10.3 µM (inactive)
- GI50 (OVCAR-5): 13.6 µM (inactive)
- GI50 (HCC 2998): 3.78 µM (inactive)
- GI50 (NCI-H226): 12.9 µM (inactive)
- GI50 (KM12): 5.27 µM (inactive)
- GI50 (CCRF-CEM): 1.44 µM (inactive)
- GI50 (HCT-15): 1.96 µM
- GI50 (RPMI-8226): 3.19 µM (inactive)
- GI50 (NCI/ADR-RES): 7.4 µM (inactive)
- GI50 (OVCAR-8): 5.68 µM (inactive)
- GI50 (HOP-92): 2.07 µM (inactive)
- GI50 (ACHN): 2.32 µM (inactive)
- GI50 (SNB-75): 14.5 µM (inactive)
- GI50 (Hs-578T): 5.68 µM (inactive)

Structure (SMILES): C[C@@H]1CC[C@@]2(C)[C@H](C)/C(=C\COC(=O)/C=C/c3ccc(O)c(O)c3)CC[C@@]12C [NAVICULYL CAFFEATE]
- GI50 (LOX IMVI): 6.01 µM (inactive)
- GI50 (OVCAR-3): 8.63 µM (inactive)
- GI50 (RXF 393): 15.7 µM (inactive)
- GI50 (SK-MEL-28): 10.8 µM (inactive)
- GI50 (SF-295): 8.87 µM (inactive)
- GI50 (NCI-H460): 3.57 µM (inactive)
- GI50 (SK-OV-3): 12.4 µM (inactive)
- GI50 (TK-10): 3.5 µM (inactive)
- GI50 (SK-MEL-5): 5.15 µM (inactive)
- GI50 (Malme-3M): 14 µM (inactive)
- GI50 (A498): 12.9 µM (inactive)
- GI50 (UO-31): 8.73 µM (inactive)
- GI50 (PC-3): 4.71 µM (inactive)
- GI50 (MDA-MB-435): 3.33 µM (inactive)
- GI50 (SW-620): 4.95 µM (inactive)
- GI50 (UACC-62): 10.3 µM (inactive)
- GI50 (HOP-62): 13.1 µM (inactive)
- GI50 (U-251): 5.35 µM (inactive)
- GI50 (EKVX): 15 µM (inactive)
- GI50 (BT-549): 14.6 µM (inactive)
- GI50 (SN12C): 4.55 µM (inactive)
- GI50 (MOLT-4): 2.26 µM (inactive)
- GI50 (NCI-H522): 1.28 µM (inactive)
- GI50 (SR): 2.41 µM (inactive)
- GI50 (SF-539): 4.83 µM (inactive)
- GI50 (CAKI-1): 4.58 µM (inactive)
- GI50 (IGROV-1): 7.31 µM (inactive)
- GI50 (T47D): 12.6 µM (inactive)
- GI50 (UACC-257): 11.8 µM (inactive)
- GI50 (MDA-MB-231): 7.83 µM (inactive)
- GI50 (K562): 4.99 µM (inactive)
- GI50 (M14): 8.18 µM (inactive)
- GI50 (OVCAR-4): 4.65 µM (inactive)
- GI50 (A549): 7.62 µM (inactive)
- GI50 (SK-MEL-2): 12.6 µM (inactive)
- GI50 (COLO 205): 3.61 µM (inactive)
- GI50 (HT-29): 3.94 µM (inactive)
- GI50 (HL-60): 5.26 µM (inactive)
- GI50 (SF-268): 9.84 µM (inactive)
- GI50 (786-0): 4.37 µM (inactive)
- GI50 (MCF7): 2.83 µM (inactive)
- GI50 (HCT-116): 2.78 µM (inactive)
- GI50 (DU-145): 8.02 µM (inactive)
- GI50 (MDA-N): 3.42 µM (inactive)
- GI50 (NCI-H23): 9.23 µM (inactive)
- GI50 (SNB-19): 11.5 µM (inactive)
- GI50 (OVCAR-5): 18 µM (inactive)
- GI50 (HCC 2998): 7.67 µM (inactive)
- GI50 (NCI-H226): 6.05 µM (inactive)
- GI50 (KM12): 3.95 µM (inactive)
- GI50 (CCRF-CEM): 1.11 µM (active)
- GI50 (HCT-15): 4.1 µM
- GI50 (RPMI-8226): 2.21 µM (inactive)
- GI50 (NCI/ADR-RES): 7.8 µM (inactive)
- GI50 (OVCAR-8): 9.42 µM (inactive)
- GI50 (HOP-92): 14.1 µM (inactive)
- GI50 (ACHN): 4.19 µM (inactive)
- GI50 (SNB-75): 11.9 µM (inactive)
- GI50 (Hs-578T): 13.2 µM (inactive)
